Laboratory results reported in publication PMC4317927 (Cancer Science, 2014).

T1: NF-κB (p52) (Homo sapiens, UniProt Q00653)
T1 sequence (Q00653 1-454 limits assumed): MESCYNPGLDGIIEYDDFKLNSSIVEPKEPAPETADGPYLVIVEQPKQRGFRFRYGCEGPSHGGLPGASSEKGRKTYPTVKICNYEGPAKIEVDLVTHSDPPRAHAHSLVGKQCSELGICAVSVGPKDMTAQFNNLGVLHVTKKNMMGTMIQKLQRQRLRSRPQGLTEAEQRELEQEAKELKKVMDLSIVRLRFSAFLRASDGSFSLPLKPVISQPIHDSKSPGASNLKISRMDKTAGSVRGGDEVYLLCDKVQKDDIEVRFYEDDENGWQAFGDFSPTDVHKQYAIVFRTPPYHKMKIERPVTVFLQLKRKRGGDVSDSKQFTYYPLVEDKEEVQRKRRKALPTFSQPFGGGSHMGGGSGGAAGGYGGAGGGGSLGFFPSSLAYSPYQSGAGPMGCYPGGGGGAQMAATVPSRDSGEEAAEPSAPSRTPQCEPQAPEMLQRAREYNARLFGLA

T2: NF-κB (p50) (Homo sapiens, UniProt P19838)
T2 sequence (P19838 1-433 limits assumed): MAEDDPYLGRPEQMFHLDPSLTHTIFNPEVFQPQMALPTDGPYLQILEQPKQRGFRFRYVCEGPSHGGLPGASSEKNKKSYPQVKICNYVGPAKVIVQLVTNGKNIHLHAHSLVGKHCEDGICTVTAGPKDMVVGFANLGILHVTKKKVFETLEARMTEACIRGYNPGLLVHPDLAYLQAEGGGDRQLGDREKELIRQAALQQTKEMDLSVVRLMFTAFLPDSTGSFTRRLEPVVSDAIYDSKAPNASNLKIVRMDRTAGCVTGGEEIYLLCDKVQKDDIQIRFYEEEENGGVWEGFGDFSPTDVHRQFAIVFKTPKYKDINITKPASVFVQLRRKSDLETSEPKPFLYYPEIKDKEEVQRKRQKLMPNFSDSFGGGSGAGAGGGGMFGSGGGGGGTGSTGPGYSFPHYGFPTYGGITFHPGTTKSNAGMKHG

B1: NF-D1 (NF-01F/NF-14D) (dsDNA)
DNA 1: AGTTGAGGGGACTTTCCCAGGCGACTCACTATAGGCGGTGTCTCGCTCGC
DNA 2: GGGAATGGTGTGGTGCCTATAGTGAGTCGCCTGGGAAAGTCCCCTCAACT

Columns and labels:
NF-κB (p52) = biological target: T1, NF-κB (p52); assay: DSE-FRET DNA-binding
NF-κB (p50) = biological target: T2, NF-κB (p50); assay: DSE-FRET DNA-binding
GST-NF-kB p50 = GST-NF-kB p50 (human, UniProt P19838 1-433); assay: DSE-FRET

Molecule	IC50 (NF-κB (p52)) [µM]	IC50 (NF-κB (p50)) [µM]	apparent K (half saturation) (GST-NF-kB p50) [nM]
Cc1cc(-c2ccc(/N=N/c3ccc4c(S(=O)(=O)O)cc(S(=O)(=O)O)c(N)c4c3O)c(C)c2)ccc1/N=N/c1ccc2c(S(=O)(=O)O)cc(S(=O)(=O)O)c(N)c2c1O [EB, Evans Blue]	12.8	12.9	–
O=C(NC1=CC(=O)[C@H]2O[C@H]2[C@H]1O)c1ccccc1O [(−)-DHMEQ]	62.5	8.8	–
B1	–	–	~40
